In patent US12486267B2, “Imidazo[1,2-A]pyridine and [1,2,4]triazolo[1,5-A]pyridine derivatives as TLR9 inhibitors for the treatment of fibrosis” (BRISTOL-MYERS SQUIBB COMPANY, priority 2020, dated 2025):

Legend:
Assay type in all cases: cell-based
human TLR9 = biological target: T1, human TLR9 (Homo sapiens, UniProt Q9NR96); experiment: TLR9 inhibition reporter assay (HEK-Blue cells, SEAP reporter); details: HEK-Blue cells overexpressing human TLR9; stimulated with ODN2006 5 nM; 22 hour incubation; SEAP readout
T1 sequence (Q9NR96 26-1032): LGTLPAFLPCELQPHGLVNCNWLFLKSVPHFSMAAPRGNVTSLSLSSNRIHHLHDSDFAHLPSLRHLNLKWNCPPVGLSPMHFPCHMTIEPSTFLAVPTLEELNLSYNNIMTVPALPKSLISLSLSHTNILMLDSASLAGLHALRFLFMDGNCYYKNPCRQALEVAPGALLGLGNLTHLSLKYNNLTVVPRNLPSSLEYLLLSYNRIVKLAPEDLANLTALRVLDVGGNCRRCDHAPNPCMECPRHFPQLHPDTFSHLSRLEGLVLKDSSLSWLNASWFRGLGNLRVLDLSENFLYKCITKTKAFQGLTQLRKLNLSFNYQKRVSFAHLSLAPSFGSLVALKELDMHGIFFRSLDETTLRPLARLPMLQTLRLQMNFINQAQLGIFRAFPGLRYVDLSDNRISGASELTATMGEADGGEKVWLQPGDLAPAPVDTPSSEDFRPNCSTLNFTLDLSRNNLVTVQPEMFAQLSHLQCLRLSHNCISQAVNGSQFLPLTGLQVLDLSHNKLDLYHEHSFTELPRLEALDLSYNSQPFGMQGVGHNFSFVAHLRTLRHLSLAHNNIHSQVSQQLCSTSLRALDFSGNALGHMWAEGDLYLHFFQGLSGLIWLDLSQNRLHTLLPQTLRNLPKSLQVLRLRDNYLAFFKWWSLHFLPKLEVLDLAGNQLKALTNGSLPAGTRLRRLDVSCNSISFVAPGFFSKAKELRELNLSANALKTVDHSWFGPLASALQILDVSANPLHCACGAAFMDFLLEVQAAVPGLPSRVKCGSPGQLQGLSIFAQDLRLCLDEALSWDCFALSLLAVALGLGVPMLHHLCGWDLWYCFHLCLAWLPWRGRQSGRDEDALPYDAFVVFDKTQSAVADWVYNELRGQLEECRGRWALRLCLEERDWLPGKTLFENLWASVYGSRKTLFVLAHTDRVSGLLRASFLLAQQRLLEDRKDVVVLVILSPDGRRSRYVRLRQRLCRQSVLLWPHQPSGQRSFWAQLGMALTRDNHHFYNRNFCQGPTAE
Outline: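 HEK-Blue cells with NF-κB/AP-1-driven SEAP pre-treated 30 min with compound (0.05 nM–50 μM), then stimulated with gardiquimod 7.5 μM (TLR7), R848 15.9 μM (TLR8) or ODN2006 5 nM (TLR9). SEAP detected after 22 h at 37 °C; percent inhibition relative to agonist-plus-DMSO and known-inhibitor wells.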

human TLR7 = biological target: T2, human TLR7 (Homo sapiens, UniProt Q9NYK1); experiment: TLR7 inhibition reporter assay (HEK-Blue cells, SEAP reporter); details: HEK-Blue cells overexpressing human TLR7; stimulated with gardiquimod 7.5 μM; 22 hour incubation; SEAP readout
T2 sequence (Q9NYK1 27-1049): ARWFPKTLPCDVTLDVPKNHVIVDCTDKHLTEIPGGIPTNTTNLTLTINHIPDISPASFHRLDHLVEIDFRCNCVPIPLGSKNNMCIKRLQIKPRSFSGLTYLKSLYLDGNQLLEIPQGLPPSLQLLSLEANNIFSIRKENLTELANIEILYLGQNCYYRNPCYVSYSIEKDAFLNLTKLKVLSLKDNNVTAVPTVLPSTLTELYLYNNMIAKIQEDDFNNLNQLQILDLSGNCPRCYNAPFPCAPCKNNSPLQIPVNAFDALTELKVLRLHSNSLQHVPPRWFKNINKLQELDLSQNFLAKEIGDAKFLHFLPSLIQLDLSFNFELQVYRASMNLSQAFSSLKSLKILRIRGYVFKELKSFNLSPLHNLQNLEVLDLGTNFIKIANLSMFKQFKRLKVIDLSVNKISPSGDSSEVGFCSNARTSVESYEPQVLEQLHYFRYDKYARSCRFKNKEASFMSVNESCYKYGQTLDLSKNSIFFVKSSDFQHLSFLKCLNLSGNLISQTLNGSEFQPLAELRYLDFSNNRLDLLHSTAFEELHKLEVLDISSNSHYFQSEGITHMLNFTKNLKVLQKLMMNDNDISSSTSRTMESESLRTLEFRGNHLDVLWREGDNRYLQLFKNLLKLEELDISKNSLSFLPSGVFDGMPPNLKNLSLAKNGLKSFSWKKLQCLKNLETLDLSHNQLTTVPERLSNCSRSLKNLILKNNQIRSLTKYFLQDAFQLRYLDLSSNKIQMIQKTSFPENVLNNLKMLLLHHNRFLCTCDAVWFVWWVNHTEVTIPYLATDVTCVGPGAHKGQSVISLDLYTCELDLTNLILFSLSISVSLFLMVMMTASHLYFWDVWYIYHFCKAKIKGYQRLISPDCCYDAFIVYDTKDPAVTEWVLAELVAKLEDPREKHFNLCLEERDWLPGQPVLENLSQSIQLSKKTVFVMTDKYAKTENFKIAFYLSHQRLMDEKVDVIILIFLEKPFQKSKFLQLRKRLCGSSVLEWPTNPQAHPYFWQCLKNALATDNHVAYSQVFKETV
Method: (§1) TLR7/8/9 Inhibition Reporter Assays
(§2) HEK-Blue™-cells (Invivogen) overexpressing human TLR7, TLR8 or TLR9 receptors were used for screening inhibitors of these receptors using an inducible SEAP (secreted embryonic alkaline phosphatase) reporter gene under the control of the […] minimal promoter fused to five NF-κB and AP-1-binding sites. Briefly, cells are seeded into Greiner 384 well plates (15000 cells per well for TLR7, 20,000 for TLR8 and 25,000 for TLR9) and then treated with test compounds in DMSO to yield a final dose response concentration range of 0.05 nM-50 μM. After a 30 minute compound pre-treatment at room temperature, the cells are then stimulated with a TLR7 ligand (gardiquimod at a final concentration of 7.5 μM), TLR8 ligand (R848 at a final concentration of 15.9 μM) or TLR9 ligand (ODN2006 at a final concentration of 5 nM) to activate NF-κB and AP-1 which induce the production of SEAP. After a 22 hour incubation at 37° C., 5% CO2, SEAP levels are determined with the addition of HEK-Blue™ Detection reagent (Invivogen), a cell culture medium that allows for detection of SEAP, according to manufacturer's specifications. The percent inhibition is determined as the % reduction in the HEK-Blue signal present in wells treated with agonist plus DMSO alone compared to wells treated with a known inhibitor.

human TLR8 = biological target: T3, human TLR8 (Homo sapiens, UniProt Q9NR97); experiment: TLR8 inhibition reporter assay (HEK-Blue cells, SEAP reporter); details: HEK-Blue cells overexpressing human TLR8; stimulated with R848 15.9 μM; 22 hour incubation; SEAP readout
T3 sequence (Q9NR97 27-1041): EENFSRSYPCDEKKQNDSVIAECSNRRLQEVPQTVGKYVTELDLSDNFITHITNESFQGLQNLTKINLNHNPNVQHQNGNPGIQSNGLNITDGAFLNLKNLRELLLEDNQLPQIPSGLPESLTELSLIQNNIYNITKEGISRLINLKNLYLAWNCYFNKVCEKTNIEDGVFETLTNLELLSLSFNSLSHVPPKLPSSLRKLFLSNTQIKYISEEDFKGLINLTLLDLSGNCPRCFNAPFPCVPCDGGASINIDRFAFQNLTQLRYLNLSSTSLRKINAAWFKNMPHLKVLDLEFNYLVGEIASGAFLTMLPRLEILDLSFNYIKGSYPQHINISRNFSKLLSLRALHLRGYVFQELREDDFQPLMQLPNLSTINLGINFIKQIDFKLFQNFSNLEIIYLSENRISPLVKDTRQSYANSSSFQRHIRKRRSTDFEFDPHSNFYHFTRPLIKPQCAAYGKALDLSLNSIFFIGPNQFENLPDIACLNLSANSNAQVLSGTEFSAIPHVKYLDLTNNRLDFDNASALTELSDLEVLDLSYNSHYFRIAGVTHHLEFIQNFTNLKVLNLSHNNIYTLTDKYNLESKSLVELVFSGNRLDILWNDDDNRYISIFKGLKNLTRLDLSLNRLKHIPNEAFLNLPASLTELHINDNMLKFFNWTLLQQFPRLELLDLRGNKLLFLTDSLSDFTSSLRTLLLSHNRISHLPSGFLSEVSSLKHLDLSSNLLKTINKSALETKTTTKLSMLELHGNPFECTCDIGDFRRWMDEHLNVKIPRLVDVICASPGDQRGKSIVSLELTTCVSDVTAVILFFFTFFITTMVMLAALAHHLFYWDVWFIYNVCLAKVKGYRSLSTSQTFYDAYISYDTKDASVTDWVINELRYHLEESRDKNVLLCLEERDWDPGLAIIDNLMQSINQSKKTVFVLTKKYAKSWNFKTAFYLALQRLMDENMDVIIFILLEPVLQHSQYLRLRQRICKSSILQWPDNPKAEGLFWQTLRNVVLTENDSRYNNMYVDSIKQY
Method: as §1, §2

## CC(C)N1CCC(N2CCC(c3ccn4cc(-c5ccc(S(C)(=O)=O)cc5)nc4c3F)CC2)CC1 [Example 132, 8-fluoro-7-(1′-isopropyl-[1,4′-bipiperidin]-4-yl)-2-(4-(methylsulfonyl)phenyl) imidazo[1,2-a]pyridine]
Human TLR9
  IC50: 300 nM
Human TLR7
  IC50: 4000 nM
Human TLR8
  IC50: > 50000 nM

## Cc1cc(C2CCN(C3CCN(CC(C)C)CC3)CC2)cn2nc(-c3ccc(S(C)(=O)=O)cc3)nc12 [Example 163, 6-(1′-isobutyl-[1,4′-bipiperidin]-4-yl)-8-methyl-2-(4-(methylsulfonyl)phenyl)-[1,2,4]triazolo[1,5-a]pyridine]
Human TLR9
  IC50: 34 nM
Human TLR7
  IC50: > 50000 nM
Human TLR8
  IC50: > 50000 nM

## COc1ccc(-c2cn3cc(C4CCN(C5CC6CCC(C5)N6C(C)C)CC4)cc(C)c3n2)cc1OC (single isomer, unassigned) [Example 23, 2-(3,4-dimethoxyphenyl)-6-(1-(8-isopropyl-8-azabicyclo[3.2.1]octan-3-yl)piperidin-4-yl)-8-methylimidazo[1,2-a]pyridine]
Human TLR9
  IC50: 242 nM
Human TLR7
  IC50: 31000 nM
Human TLR8
  IC50: > 50000 nM

## COc1ccc(-c2cn3c(n2)CC[C@H](C2CCN(C4CC5CCC(C4)N5CC(C)C)CC2)C3)cc1OC (single isomer, unassigned) [Example 75]
Human TLR9
  IC50: 34 nM
Human TLR7
  IC50: 2900 nM
Human TLR8
  IC50: > 25000 nM

## COc1ccc(-c2cn3cc(C4CCN(C5CCN(C6CC6)CC5)CC4)cc(C)c3n2)cc1OC [Example 1, 6-(1′-cyclopropyl-[1,4′-bipiperidin]-4-yl)-2-(3,4-dimethoxyphenyl)-8-methylimidazo [1,2-a]pyridine]
Human TLR9
  IC50: 56 nM
Human TLR7
  IC50: 14000 nM
Human TLR8
  IC50: > 50000 nM

## COc1ccc(-c2cn3c(n2)CCC(C2CCN(C4CC5(C4)CN(C4CCC4)C5)CC2)C3)cc1OC (racemic) [Example 48, 6-(1-(2-cyclobutyl-2-azaspiro[3.3]heptan-6-yl)piperidin-4-yl)-2-(3,4-dimethoxyphenyl)-5,6,7,8-tetrahydroimidazo[1,2-a]pyridine]
Human TLR9
  IC50: 112 nM
Human TLR7
  IC50: 2000 nM
Human TLR8
  IC50: > 50000 nM

## CC(C)CN1CCC(N2CCC(c3cc(F)c4nc(-c5ccc(S(C)(=O)=O)cc5)cn4c3)CC2)CC1 [Example 107, 8-fluoro-6-(1′-isobutyl-[1,4′-bipiperidin]-4-yl)-2-(4-(methylsulfonyl)phenyl) imidazo[1,2-a]pyridine]
Human TLR9
  IC50: 100 nM
Human TLR7
  IC50: 11000 nM
Human TLR8
  IC50: > 50000 nM

## CC(C)CN1CCCC(N2CCC(c3cc(F)c4nc(-c5ccc(S(C)(=O)=O)cc5)cn4c3)CC2)CC1 (single isomer, unassigned) [Example 125, 8-fluoro-6-(1-(1-isobutylazepan-4-yl)piperidin-4-yl)-2-(4-(methylsulfonyl)phenyl) imidazo[1,2-a]pyridine]
Human TLR9
  IC50: 20 nM
Human TLR7
  IC50: 12700 nM
Human TLR8
  IC50: 47400 nM

## CC(C)N1CCC(N2CCC(c3ccc4nc(-c5ccc(S(C)(=O)=O)cc5)cn4c3F)CC2)CC1 [Example 73, 5-fluoro-6-(1′-isopropyl-[1,4′-bipiperidin]-4-yl)-2-(4-(methylsulfonyl)phenyl) imidazo[1,2-a]pyridine]
Human TLR9
  IC50: 106 nM
Human TLR7
  IC50: > 50000 nM
Human TLR8
  IC50: 23000 nM

## CS(=O)(=O)c1ccc(-c2cn3c(n2)CC[C@@H](C2CCN(C4CC5CCC(C4)N5CC4CC4)CC2)C3)cc1 (single isomer, unassigned) [Example 140]
Human TLR9
  IC50: 352 nM
Human TLR7
  IC50: > 50000 nM
Human TLR8
  IC50: > 50000 nM

## CS(=O)(=O)c1ccc(-c2cn3cc(C4CCN(C5CC6CCC(C5)N6C5CCC5)CC4)cc(F)c3n2)cc1 (single isomer, unassigned) [Example 117, 6-(1-(8-cyclobutyl-8-azabicyclo[3.2.1]octan-3-yl)piperidin-4-yl)-8-fluoro-2-(4-(methylsulfonyl)phenyl)imidazo[1,2-a]pyridine]
Human TLR9
  IC50: 22 nM
Human TLR7
  IC50: 1500 nM
Human TLR8
  IC50: 20000 nM
